The record followed here is patent publication US20260284080A1 (priority 2025, published 2026).

Structures are written as SMILES.

This data set can be described thus: physchem. Format: physicochemical. From the text: Abiraterone acetate is a white to off-white, non-hygroscopic, crystalline powder.

As usually defined, the pKa is the pH at which an ionisable group is half protonated. A low value points to a group that gives up its proton readily. Turning to `CC(=O)O[C@H]1CC[C@@]2(C)C(=CC[C@@H]3[C@@H]2CC[C@]2(C)C(c4cccnc4)=CC[C@@H]32)C1` [abiraterone acetate, (3B)-17-(3-pyridinyl) androsta-5,16-dien-3-yl acetate], the pKa turned out to be 5.19.
